Source: patent publication US20170029355A1, “LABILE ESTERS OF AGROCHEMICALS FOR CONTROLLED RELEASE AND REDUCTION OF OFF-SITE MOVEMENT” (Monsanto Technology LLC, priority 2011, published 2017)

What was measured:
[1] = Solubility of the esters (statements of the description); type: physicochemical; details: qualitative
[2] = Photolysis / cleavage of the esters to dicamba (statements of the description); type: physicochemical; details: qualitative
Text: The efficacy of the photolabile esters can be assayed in vitro, or in greenhouse or field experiments. A useful in vitro assay for post-emergent activity involves photolysis of a dilute solution of the esters using simulated sunlight. This is conveniently achieved by photolysis of a solution of the ester in an organic solvent which is miscible with water and to which some water has been added. As described in the Examples, photolysis in acetonitrile or tetrahydrofuran containing 10% water by weight is effective. Low concentrations of the ester should be used so that the entire volume is exposed to sunlight. Since the maximum extinction coefficient of the typical esters above 220 nm is in the range of 1000-10,000 M^−1 cm^−1, a concentration of 0.1 mM is effective. Photolysis in a quartz tube exposed to simulated or actual sunlight is a typical protocol.

velvetleaf [3] = assay: Greenhouse post-emergent control of velvetleaf by emulsifiable concentrates (Example 30); type: in vivo
Procedure: (§1) The efficacy of some photo-labile ester formulations from Example 28 for post-emergent control of velvetleaf was tested in the greenhouse. All formulations were tested at rates of 140, 280, 420, and 560 g dicamba equivalent per hectare rates and compared to the diglycolamine salt of dicamba (CLARITY®) at the same rates and untreated control plants. The velvetleaf plants were 10-15 cm in height at the time of spraying. Percent control was evaluated three weeks after treatment.
The methodology of Example 29 was used to evaluate the efficacy of several photo-labile esters of dicamba for post-emergent control of velvetleaf as emulsifiable concentrate formulations described in Example 28.

broadleaf weeds = assay: Control of broadleaf weeds by ester concentrates (statements of the description); type: in vivo; details: emulsifiable and suspension concentrates; Sesbania macrocarpa, morning glory, velvetleaf, Palmer amaranth, fat hen, sicklepod
velvetleaf [4] = assay: Greenhouse post-emergent control of velvetleaf by emulsifiable concentrates (Example 29); type: in vivo; details: three weeks after treatment
Procedure: as §1

[5] = In vitro dicamba photo-release from photo-labile dicamba esters, tetrahydrofuran solvent (Example 26); type: physicochemical; details: THF, 0.1 mM ester
Procedure: (§2) This Example describes in vitro testing of dicamba photo-release by homogeneous solutions of photo-labile dicamba esters. The esters were dissolved in tetrahydrofuran (THF). Ester concentration was 0.1 mM. 25 ml of the solution was transferred to 22 mm tubes fabricated from graded seal quartz tubing with a 19/22 tapered seal at the top, which was closed with a tapered glass plug and secured with a plastic ring clamp. The solution was entirely below the quartz-to-glass transition, ensuring that the entire volume was exposed to the full spectrum.
(§3) The sealed tubes were placed in a Growth Chamber where they were exposed to simulated sunlight for 14 hours per day at 35° C. Dicamba concentrations in the solution were measured during the course of the photolysis.
(§4) A sample of the initial solution was reserved in a glass vial away from the light source and analyzed at the conclusion of the study, providing a measurement of the amount of dicamba present without illumination of the photolysis solution (the “dark control”).

[6] = In vitro dicamba photo-release from photo-labile dicamba esters, acetonitrile/10% water solvent (Example 27); type: physicochemical; details: acetonitrile containing 10% water
Procedure: as §2, §3, §4
This Example is another photolysis of photo-labile dicamba esters, but using acetonitrile containing 10% water by weight as the solvent. The experimental protocol is otherwise the same as in Example 18.

velvetleaf [7] = assay: Greenhouse post-emergent control of velvetleaf by emulsifiable concentrates (Example 37); type: in vivo; details: Abutilon theophrasti, post-emergence, 504 h, greenhouse, Example 37
Procedure: as §1
The methodology of Example 29 was used to evaluate the efficacy of several esters of dicamba which convert to dicamba by hydrolysis for post-emergent control of velvetleaf as emulsifiable concentrate formulations.

velvetleaf [8] = assay: Field testing of emulsifiable concentrates, post-emergent control (Example 40); type: in vivo
Procedure: (§5) Three dicamba esters, 30a, 32a, and 36a, were formulated as emulsifiable concentrates for field testing. All surfactants are commercial materials from Stepan.
(§6) The formulations were tested in the field. Locations and timing were identical for the three esters, but differed slightly for the diglycolamine control. The esters were compared to the diglycolamine salt of dicamba (CLARITY™) for post-emergent control of three broadleaf weeds: velvetleaf, morning glory, and hemp sesbania. Rates of 280 and 560 g dicamba acid equivalent per hectare were used.

morning glory = assay: as above; type: in vivo
Procedure: as §5, §6

hemp sesbania = assay: as above; type: in vivo
Procedure: as §5, §6

[9] = In vitro photo-release and hydrolytic release of dicamba in an aqueous medium (Example 36); type: physicochemical; details: 0.01 mM (0.005 mM for diesters)
Procedure: This Example describes the determination of photo-lability and hydrolytic lability of dicamba esters in an aqueous medium. 1 mM solutions of the esters were prepared in acetonitrile (or […] solutions of dicamba diesters). The solutions were then diluted with deionized water to a concentration of 0.01 mM (or 0.005 mM for diesters). The solutions were then transferred to quartz tubes and amber bottles and held in a growth chamber by the procedure of Example 26. A 14-hour day was generally used at a constant temperature of 35° C. Hydrolytic activity was assessed by measuring the increase in dicamba concentration after day zero in the amber (dark) bottles. […] Photolysis manifested itself as increased conversion in the quartz tubes compared to the dark control.
This Example provides the results of an aqueous lability test following the protocol of Example 35 for several dicamba esters which convert to dicamba primarily by hydrolysis. As shown by the results in the table below, conversion of the dark controls generally equaled or exceeded conversion in the photolysis solutions.

[10] = 280 g dicamba acid equivalent per hectare
[11] = 560 g dicamba acid equivalent per hectare

Question: For `COc1cc(COC(=O)c2c(Cl)ccc(Cl)c2OC)c([N+](=O)[O-])cc1OC` [Ester 1b, 6-nitroveratryl ester of dicamba], which “solubility, in words” value [1] is on record?
Answer: significantly less soluble than 1a

Question: For `COc1c(Cl)ccc(Cl)c1C(=O)OCc1cccc([N+](=O)[O-])c1` [Ester 1c, 3-nitrobenzyl ester of dicamba], which “photolysis / photo-release of dicamba, in words” value (from here on “photolysis / photo-release”) [2] is on record?
Answer: slower and less efficient photolysis than the 2-nitrobenzyl ester

Question: Which “% Control of velvetleaf, 140 g/ha” value (velvetleaf [3]) does the source give for `COc1c(Cl)ccc(Cl)c1C(=O)OCCOc1ccccc1[N+](=O)[O-]` [Ester 3] here?
Answer: 36%

Question: What about the “% Control of velvetleaf, 280 g/ha” value (velvetleaf [3]) of the same molecule?
Answer: 57%

Question: What about the “% Control of velvetleaf, 420 g/ha” value (velvetleaf [3]) of the same molecule?
Answer: 40%

Question: And the “% Control of velvetleaf, 560 g/ha” value (velvetleaf [3])?
Answer: 43%

Question: And the “photolysis / photo-release” value [2]?
Answer: the rate of photolysis decreases

Question: What does the source list for `COc1c(Cl)ccc(Cl)c1C(=O)OCCOCc1ccccc1[N+](=O)[O-]` [Ester 4, 2-(2-Nitrobenzoxy)Ethanol Ester of Dicamba]?
Answer: % Control of velvetleaf, 140 g/ha (velvetleaf [3]): 32%; % Control of velvetleaf, 280 g/ha (velvetleaf [3]): 52%; % Control of velvetleaf, 420 g/ha (velvetleaf [3]): 50%; % Control of velvetleaf, 560 g/ha (velvetleaf [3]): 51%; photolysis / photo-release of dicamba, in words [2]: the rate of photolysis decreases

Question: Which “control of a number of broadleaf weeds in field testing, in words” value (broadleaf weeds) does the source give for `CCCCOc1ccc(C(=O)COC(=O)c2c(Cl)ccc(Cl)c2OC)cc1` [Ester 10, p-n-Butoxyphenacylmethyl Ester of Dicamba] here?
Answer: proven effective

Question: And the “% Control of velvetleaf, 140 g/ha” value (velvetleaf [4]; 140 g dicamba equivalent per hectare)?
Answer: 23%

Question: And the “% Control of velvetleaf, 280 g/ha” value (velvetleaf [4]; 280 g dicamba equivalent per hectare)?
Answer: 33%

Question: And the “% Control of velvetleaf, 420 g/ha” value (velvetleaf [4]; 420 g dicamba equivalent per hectare)?
Answer: 28%

Question: What about the “% Control of velvetleaf, 560 g/ha” value (velvetleaf [4]; 560 g dicamba equivalent per hectare) of the same molecule?
Answer: 33%

Question: What about the “Dark Control % dicamba” value ([5]; initial solution kept away from the light source, analyzed at conclusion of study) of the same molecule?
Answer: 8%

Question: What about the “Conversion to dicamba, 1 day” value ([5]; simulated sunlight 14 hours per day, 35° C., 1 day) of the same molecule?
Answer: 16%

Question: What about the “Conversion to dicamba, 2 days” value ([5]; simulated sunlight 14 hours per day, 35° C., 2 days) of the same molecule?
Answer: 15%

Question: And the “Conversion to dicamba, 3 days” value ([5]; simulated sunlight 14 hours per day, 35° C., 3 days)?
Answer: 16%

Question: What about the “Conversion to dicamba, 5 days” value ([5]; simulated sunlight 14 hours per day, 35° C., 5 days) of the same molecule?
Answer: 19%

Question: And the “Conversion to dicamba, 7 days” value ([5]; simulated sunlight 14 hours per day, 35° C., 7 days)?
Answer: 20%

Question: What about the “Conversion to dicamba, 9 days” value ([5]; simulated sunlight 14 hours per day, 35° C., 9 days) of the same molecule?
Answer: 29%

Question: What about the “Conversion to dicamba, 12 days” value ([5]; simulated sunlight 14 hours per day, 35° C., 12 days) of the same molecule?
Answer: 35%

Question: And the “Conversion to dicamba, 15 days” value ([5]; simulated sunlight 14 hours per day, 35° C., 15 days)?
Answer: 35%

Question: And the “Dark Control % dicamba” value ([6]; no illumination)?
Answer: 8%

Question: And the “Conversion to dicamba, 1 day” value ([6]; simulated sunlight, 1 day)?
Answer: 17%

Question: And the “Conversion to dicamba, 2 days” value ([6]; simulated sunlight, 2 days)?
Answer: 19%

Question: What about the “Conversion to dicamba, 3 days” value ([6]; simulated sunlight, 3 days) of the same molecule?
Answer: 20%

Question: And the “Conversion to dicamba, 5 days” value ([6]; simulated sunlight, 5 days)?
Answer: 24%

Question: And the “Conversion to dicamba, 7 days” value ([6]; simulated sunlight, 7 days)?
Answer: 28%

Question: What about the “Conversion to dicamba, 11 days” value ([6]; simulated sunlight, 11 days) of the same molecule?
Answer: 32%

Question: And the “Conversion to dicamba, 13 days” value ([6]; simulated sunlight, 13 days)?
Answer: 31%

Question: And the “Conversion to dicamba, 15 days” value ([6]; simulated sunlight, 15 days)?
Answer: 32%

Question: What about the “Conversion to dicamba, 19 days” value ([6]; simulated sunlight, 19 days) of the same molecule?
Answer: 33%

Question: Which “photolysis / photo-release” value [2] does the source give for `COc1c(Cl)ccc(Cl)c1C(=O)Oc1c(C)cc(C)cc1C(C)(C)C` [Ester 21] here?
Answer: undergo photo-release of dicamba in vitro

Question: For `COc1c(Cl)ccc(Cl)c1C(=O)Oc1nc(C(C)(C)C)cc(C(C)(C)C)c1C#N` [Ester 36a], which pest or weed control at 140 g/ha (velvetleaf [7]; 140 g/ha, read-out: % Control of velvetleaf, 140 g/ha) is on record?
Answer: 15.8%

Question: What about the pest or weed control at 280 g/ha (velvetleaf [7]; 280 g/ha, read-out: % Control of velvetleaf, 280 g/ha) of the same molecule?
Answer: 26.7%

Question: And the pest or weed control at 420 g/ha (velvetleaf [7]; 420 g/ha, read-out: % Control of velvetleaf, 420 g/ha)?
Answer: 32.5%

Question: What about the pest or weed control at 560 g/ha (velvetleaf [7]; 560 g/ha, read-out: % Control of velvetleaf, 560 g/ha) of the same molecule?
Answer: 66.7%

Question: What about the “% control 19 days after treatment, 280 g/ha, Velvetleaf” value (velvetleaf [8]; [10]) of the same molecule?
Answer: 72 ± 25%

Question: What about the “% control 19 days after treatment, 560 g/ha, Velvetleaf” value (velvetleaf [8]; [11]) of the same molecule?
Answer: 84 ± 26%

Question: What about the “% control 19 days after treatment, 280 g/ha, Morning glory” value (morning glory; [10]) of the same molecule?
Answer: 83 ± 4%

Question: What about the “% control 19 days after treatment, 560 g/ha, Morning glory” value (morning glory; [11]) of the same molecule?
Answer: 93 ± 5%

Question: What about the “% control 19 days after treatment, 280 g/ha, Hemp sesbania” value (hemp sesbania; [10]) of the same molecule?
Answer: 82 ± 10%

Question: What about the “% control 19 days after treatment, 560 g/ha, Hemp sesbania” value (hemp sesbania; [11]) of the same molecule?
Answer: 98 ± 2%

Question: What about the “control of a number of broadleaf weeds in field testing, in words” value (broadleaf weeds) of the same molecule?
Answer: proven effective

Question: What about the “Conversion to Dicamba, Dark, Day 0” value ([9]; amber (dark) bottle, Day 0) of the same molecule?
Answer: 20%

Question: What about the “Conversion to Dicamba, Dark, Day 1” value ([9]; amber (dark) bottle, Day 1) of the same molecule?
Answer: 59%

Question: What about the “Conversion to Dicamba, Dark, Day 2” value ([9]; amber (dark) bottle, Day 2) of the same molecule?
Answer: 61%

Question: What about the “Conversion to Dicamba, Dark, Day 3” value ([9]; amber (dark) bottle, Day 3) of the same molecule?
Answer: 60%

Question: And the “Conversion to Dicamba, Dark, Day 4” value ([9]; amber (dark) bottle, Day 4)?
Answer: 60%

Question: What about the “Conversion to Dicamba, Dark, Day 7” value ([9]; amber (dark) bottle, Day 7) of the same molecule?
Answer: 65%

Question: What about the “Conversion to Dicamba, Dark, Day 21” value ([9]; amber (dark) bottle, Day 21) of the same molecule?
Answer: 66%

Question: And the “Conversion to Dicamba, Light, Day 0” value ([9]; quartz tube, Day 0)?
Answer: 20%

Question: And the “Conversion to Dicamba, Light, Day 1” value ([9]; quartz tube, Day 1)?
Answer: 57%

Question: And the “Conversion to Dicamba, Light, Day 2” value ([9]; quartz tube, Day 2)?
Answer: 60%

Question: And the “Conversion to Dicamba, Light, Day 3” value ([9]; quartz tube, Day 3)?
Answer: 58%

Question: What about the “Conversion to Dicamba, Light, Day 4” value ([9]; quartz tube, Day 4) of the same molecule?
Answer: 59%

Question: What about the “Conversion to Dicamba, Light, Day 7” value ([9]; quartz tube, Day 7) of the same molecule?
Answer: 63%

Question: What about the “Conversion to Dicamba, Light, Day 21” value ([9]; quartz tube, Day 21) of the same molecule?
Answer: 65%
